Several values for one entry are separate records, joined by “and”; a condition that tells them apart may be missing. Equal values may be shown once. Read-outs that look alike come from different tables or passages of the source. One block for each compound: values may come before it.
What was measured:
B16 melanoma cells = experiment: Inhibition of α-MSH-stimulated melanin formation (melanin measurement); format: cell-based, Mouse; conditions: α-MSH 10.0 nM, melanin released into medium, absorbance 405 nm, read-out: IC50, inhibition of α-MSH-induced melanogenesis
Method: Mouse melanoma B16 cells were cultured in a 96-well culture plate (2.5 × 10^3 cells/well). Culture media were washed from each culture plates after 24 h and treated with freshly prepared 10% FBS-DMEM medium, various concentrations (such as 0.5, 1.0, 3.0, 10.0, 30.0, and 100.0 µM) of compound samples, and stimulants (α-MSH, 10.0 nM). Then, it was incubated at 37 °C for 72 h, and the amount of melanin released into the medium was determined by measuring the absorbance at wavelength of 405 nm using spectrophotometer (Molecular Device, San Jose, CA, USA). The absorbance of stimulated cells using α-MSH was used as a control, and the inhibition level was calculated by subtracting the absorbance values of cells that were not stimulated. The absorbance values were compared with standard curves obtained with synthetic melanin. The synthetic melanin (Sigma-Aldrich, St. Louis, MO, USA) was dissolved in 0.85 M KOH-10% DMSO solution; then, it was serially diluted with 10% FBS-DMEM medium and then aliquoted into a 96-well culture plate. Then, the absorbance of melanin was measured by a spectrophotometer at 405 nm, and a standard curve was prepared. Using this value, the amount of melanin released out of the cell was directly calculated. Results obtained by three or more sets of experiments were expressed as mean ± standard error.

[1] = Stability of CGA acyl analogues in methanol solution (HPLC); format: physicochemical; conditions: 25 °C
Method: The stability of the synthesized acyl analogues was measured in methanol, since the acetyl analogue of CGA was highly unstable in methanol solution. First, 10 mg of the sample was dissolved in 2 mL of methanol and stored at 25 °C. Then, purity was analyzed using HPLC (Shimadzu LC solution, Kyoto, Japan) for 28 days. The samples in methanol solution were diluted 10 times in the HPLC mobile phase ((A) 0.5% formic acid in H2O (B) 0.5% formic acid in acetonitrile (ACN), A/B = 20/80) and injected in HPLC column (inertsil ODS-3V C18 column (250 × 4.00 mm i.d; 5 μm)). Finally, the amount of acyl compound remaining in the solution was measured by calculating the area under the curve of the HPLC chromatogram, and the results were expressed in percentage units.

SMILES: OC[C@H]1O[C@@H](Oc2ccc(O)cc2)[C@H](O)[C@@H](O)[C@@H]1O [Arbutin, reference compound]
- IC50 (B16 melanoma cells; Mus musculus, B16, 72 h): 380 ± 9.5 µM

SMILES: COc1ccc(-c2ccnc(NCc3ccccc3)c2)cc1OC [Compound 6a, N-Benzyl-4-(3,4-dimethoxyphenyl)pyridin-2-amine]
- IC50 (B16 melanoma cells; Mus musculus, B16, 72 h): 17 ± 4 µM

SMILES: COc1ccc(-c2ccnc(NCc3ccc(Cl)cc3)c2)cc1OC [Compound 6b, N-(4-Chlorobenzyl)-4-(3,4-dimethoxyphenyl)pyridin-2-amine]
- IC50 (B16 melanoma cells; Mus musculus, B16, 72 h): 4.5 ± 0.7 µM

SMILES: COc1ccc(-c2ccnc(NCc3cccc(Cl)c3)c2)cc1OC [Compound 6c, N-(3-Chlorobenzyl)-4-(3,4-dimethoxyphenyl)pyridin-2-amine]
- IC50 (B16 melanoma cells; Mus musculus, B16, 72 h): 5 ± 1.4 µM

SMILES: COc1ccc(-c2ccnc(NCc3ccccc3Cl)c2)cc1OC [Compound 6d, N-(2-Chlorobenzyl)-4-(3,4-dimethoxyphenyl)pyridin-2-amine]
- IC50 (B16 melanoma cells; Mus musculus, B16, 72 h): 8.5 ± 0.7 µM
- IC50 (B16 melanoma cells; 72 h): 8 ± 1 µM

SMILES: COc1ccc(-c2ccnc(NCc3ccc(C(F)(F)F)cc3)c2)cc1OC [Compound 6e, 4-(3,4-Dimethoxyphenyl)-N-(4-(trifluoromethyl)benzyl)pyridin-2-amine]
- IC50 (B16 melanoma cells; Mus musculus, B16, 72 h): 8.5 ± 0.7 µM

SMILES: COc1ccc(-c2ccnc(NCc3cccc(C(F)(F)F)c3)c2)cc1OC [Compound 6f, 4-(3,4-Dimethoxyphenyl)-N-(3-(trifluoromethyl)benzyl)pyridin-2-amine]
- IC50 (B16 melanoma cells; Mus musculus, B16, 72 h): 2.5 ± 0.7 µM

SMILES: COc1ccc(-c2ccnc(NCc3ccccc3C(F)(F)F)c2)cc1OC [Compound 6g, 4-(3,4-Dimethoxyphenyl)-N-(2-(trifluoromethyl)benzyl)pyridin-2-amine]
- IC50 (B16 melanoma cells; Mus musculus, B16, 72 h): 7.5 ± 0.7 µM

SMILES: CC(C)COc1ccc(/C=C/C(=O)OC2CCCCC2)cc1OCC(C)C [Compound 15, (E)-Cyclohexyl 3-(3,4-diisobutoxyphenyl)acrylate]
- IC50 (B16 melanoma cells; Mus musculus, B16, 72 h): > 100 µM

SMILES: COc1ccc(/C=C/C(=O)OC2CCCCC2)cc1OC [Compound 17, (E)-Cyclohexyl 3-(3,4-dimethoxyphenyl)acrylate]
- IC50 (B16 melanoma cells; Mus musculus, B16, 72 h): > 100 µM

SMILES: CC(=O)Oc1ccc(/C=C/C(=O)OC2CCCCC2)cc1OC(C)=O [Compound 18]
- Amount remaining in methanol (HPLC area) ([1]; day 0): 99.5029%
- Amount remaining in methanol (HPLC area) ([1]; day 1): 71.1918%
- Amount remaining in methanol (HPLC area) ([1]; day 2): 55.5162%
- Amount remaining in methanol (HPLC area) ([1]; day 3): 43.5699%
- Amount remaining in methanol (HPLC area) ([1]; day 4): 33.7154%
- Amount remaining in methanol (HPLC area) ([1]; day 5): 27.3752%
- Amount remaining in methanol (HPLC area) ([1]; day 7): 16.5047%
- Amount remaining in methanol (HPLC area) ([1]; day 9): 10.5572%
- Amount remaining in methanol (HPLC area) ([1]; day 11): 6.9200%
- Amount remaining in methanol (HPLC area) ([1]; day 21): 1.4408%
- Amount decomposed in methanol solution ([1]; within 10 days, HPLC): more than 90%

SMILES: O=c1cc(CO)occ1O [Kojic acid, reference compound]
- IC50 (B16 melanoma cells; Mus musculus, B16, 72 h): 54 ± 1.5 µM

Now from value to compound:

- IC50 (B16 melanoma cells; Mus musculus, B16, 72 h): > 100 µM
SMILES: COc1ccc(-c2ccnc(NCc3ccccc3)n2)cc1OC [Compound 10a, N-Benzyl-4-(3,4-dimethoxyphenyl)pyrimidin-2-amine]

- IC50 (B16 melanoma cells; Mus musculus, B16, 72 h): 54 ± 6 µM
SMILES: COc1ccc(-c2ccnc(NCc3ccc(Cl)cc3)n2)cc1OC [Compound 10b, N-(4-Chlorobenzyl)-4-(3,4-dimethoxyphenyl)pyrimidin-2-amine]

- IC50 (B16 melanoma cells; Mus musculus, B16, 72 h): 32 ± 2 µM
SMILES: COc1ccc(-c2ccnc(NCc3cccc(Cl)c3)n2)cc1OC [Compound 10c, N-(3-Chlorobenzyl)-4-(3,4-dimethoxyphenyl)pyrimidin-2-amine]

- IC50 (B16 melanoma cells; Mus musculus, B16, 72 h): 40 ± 8 µM
SMILES: COc1ccc(-c2ccnc(NCc3ccccc3Cl)n2)cc1OC [Compound 10d, N-(2-Chlorobenzyl)-4-(3,4-dimethoxyphenyl)pyrimidin-2-amine]

- IC50 (B16 melanoma cells; Mus musculus, B16, 72 h): > 100 µM
SMILES: COc1ccc(-c2ccnc(NCc3ccc(C(F)(F)F)cc3)n2)cc1OC [Compound 10e, 4-(3,4-Dimethoxyphenyl)-N-(4-(trifluoromethyl)benzyl)pyrimidin-2-amine]

- IC50 (B16 melanoma cells; Mus musculus, B16, 72 h): 20 ± 1 µM
SMILES: COc1ccc(-c2ccnc(NCc3cccc(C(F)(F)F)c3)n2)cc1OC [Compound 10f, 4-(3,4-Dimethoxyphenyl)-N-(3-(trifluoromethyl)benzyl)pyrimidin-2-amine]

- Amount remaining in methanol (HPLC area) ([1]; day 0): 99.3294%
- Amount remaining in methanol (HPLC area) ([1]; day 1): 91.3520%
- Amount remaining in methanol (HPLC area) ([1]; day 2): 85.3800%
- Amount remaining in methanol (HPLC area) ([1]; day 3): 80.3685%
- Amount remaining in methanol (HPLC area) ([1]; day 4): 75.4921%
- Amount remaining in methanol (HPLC area) ([1]; day 5): 72.147%
- Amount remaining in methanol (HPLC area) ([1]; day 7): 64.7751%
- Amount remaining in methanol (HPLC area) ([1]; day 9): 59.4842%
- Amount remaining in methanol (HPLC area) ([1]; day 11): 55.1819%
- Amount remaining in methanol (HPLC area) ([1]; day 21): 43.3505%
- Amount remaining in methanol (HPLC area) ([1]; day 28): 39% and 39.0229%
- IC50 (B16 melanoma cells; Mus musculus, B16, 72 h): 1.1 ± 0.1 µM
- IC50 (B16 melanoma cells; 72 h): 1 ± 0.1 µM
SMILES: CCCC(=O)Oc1ccc(/C=C/C(=O)OC2CCCCC2)cc1OC(=O)CCC [Compound 13a, (E)-4-(3-(Cyclohexyloxy)-3-oxoprop-1-en-1-yl)-1,2-phenylene dibutyrate]

- Amount remaining in methanol (HPLC area) ([1]; day 0): 99.8006%
- Amount remaining in methanol (HPLC area) ([1]; day 1): 93.7356%
- Amount remaining in methanol (HPLC area) ([1]; day 2): 89.9637%
- Amount remaining in methanol (HPLC area) ([1]; day 3): 86.8066%
- Amount remaining in methanol (HPLC area) ([1]; day 4): 83.9188%
- Amount remaining in methanol (HPLC area) ([1]; day 5): 82.1086%
- Amount remaining in methanol (HPLC area) ([1]; day 7): 77.5962%
- Amount remaining in methanol (HPLC area) ([1]; day 9): 74.0389%
- Amount remaining in methanol (HPLC area) ([1]; day 11): 70.6843%
- Amount remaining in methanol (HPLC area) ([1]; day 21): 58.4127%
- Amount remaining in methanol (HPLC area) ([1]; day 28): 52% and 52.5500%
- IC50 (B16 melanoma cells; Mus musculus, B16, 72 h): 1.3 ± 0.4 µM
SMILES: CCCCCC(=O)Oc1ccc(/C=C/C(=O)OC2CCCCC2)cc1OC(=O)CCCCC [Compound 13b, (E)-4-(3-(Cyclohexyloxy)-3-oxoprop-1-en-1-yl)-1,2-phenylene dihexanoate]

- Amount remaining in methanol (HPLC area) ([1]; day 0): 99.5492%
- Amount remaining in methanol (HPLC area) ([1]; day 1): 99.3034%
- Amount remaining in methanol (HPLC area) ([1]; day 2): 99.1518%
- Amount remaining in methanol (HPLC area) ([1]; day 3): 99.0038%
- Amount remaining in methanol (HPLC area) ([1]; day 4): 98.8061%
- Amount remaining in methanol (HPLC area) ([1]; day 5): 98.5395%
- Amount remaining in methanol (HPLC area) ([1]; day 7): 97.9332%
- Amount remaining in methanol (HPLC area) ([1]; day 9): 97.4173%
- Amount remaining in methanol (HPLC area) ([1]; day 11): 96.8033%
- Amount remaining in methanol (HPLC area) ([1]; day 21): 95.0243%
- Amount remaining in methanol (HPLC area) ([1]; day 28): 94% and 94.0833%
- IC50 (B16 melanoma cells; Mus musculus, B16, 72 h): 1.9 ± 0.1 µM
SMILES: CC(C)(C)C(=O)Oc1ccc(/C=C/C(=O)OC2CCCCC2)cc1OC(=O)C(C)(C)C [Compound 13c, (E)-4-(3-(Cyclohexyloxy)-3-oxoprop-1-en-1-yl)-1,2-phenylene bis(2,2-dimethylpropanoate)]

- Amount remaining in methanol (HPLC area) ([1]; day 0): 98.9750%
- Amount remaining in methanol (HPLC area) ([1]; day 1): 96.9973%
- Amount remaining in methanol (HPLC area) ([1]; day 2): 95.8267%
- Amount remaining in methanol (HPLC area) ([1]; day 3): 94.6557%
- Amount remaining in methanol (HPLC area) ([1]; day 4): 93.5713%
- Amount remaining in methanol (HPLC area) ([1]; day 5): 93.0573%
- Amount remaining in methanol (HPLC area) ([1]; day 7): 91.6229%
- Amount remaining in methanol (HPLC area) ([1]; day 9): 90.6724%
- Amount remaining in methanol (HPLC area) ([1]; day 11): 89.8768%
- Amount remaining in methanol (HPLC area) ([1]; day 21): 87.5571%
- IC50 (B16 melanoma cells; Mus musculus, B16, 72 h): 2.3 ± 0.2 µM
SMILES: O=C(/C=C/c1ccc(OC(=O)C2CCCCC2)c(OC(=O)C2CCCCC2)c1)OC1CCCCC1 [Compound 13d, (E)-4-(3-(Cyclohexyloxy)-3-oxoprop-1-en-1-yl)-1,2-phenylene dicyclohexanecarboxylate]

From PMC8622415, “Inhibitory Effect of Chlorogenic Acid Analogues Comprising Pyridine and Pyrimidine on α-MSH-Stimulated Melanogenesis and Stability of Acyl Analogues in Methanol” (Pharmaceuticals, 2021)
